This note sets out measurements from patent US10806761B2, “Oncolytic HSV1 vector and methods of use” (THE BRIGHAM AND WOMEN'S HOSPITAL, INC., priority 2015, dated 2020).

In this assay the test system is gliomas. Conditions: single dose administered two days before rQNestin34.5v.2. From the text:
Mammals are able to rapidly counteract HSV1 in the brain through their initial immune responses.

As for `O=P1(N(CCCl)CCCl)NCCCO1` (centres unmarked) [cyclophosphamide], the “effect on viral biodistribution, replication and efficacy” value was “significantly enhances viral biodistribution, replication and efficacy”; the “reduction of the dose of virus required to produce a survival effect” value was “two orders of magnitude”.
